This is an account of results in US20260085062A1, “NOVEL COMPOUNDS AS CK2 INHIBITORS” (Cambridge Enterprise Limited, priority 2022, published 2026).

The target of one assay is T1, CLK2 (Homo sapiens, UniProt P49760).
T1 construct: purchased Carna Biosciences 04-127
In words: Biochemical assay for inhibitors of CLK2 kinase activity (ADP-Glo). Conditions: 20 nM CLK2, 50 μM peptide substrate, 100 μM ATP, read-out: Assay 2: CLK2 Enzyme IC50. As for the experimental part: The inhibitory activity of putative kinase inhibitors and the potency of selected compounds were determined using ADP-GloTM assay. The kinase reaction was performed in the presence of excess peptide substrate and ATP at a concentration equivalent to Km. Upon termination of the kinase reaction, remaining ATP was depleted leaving only ADP reaction product, which was converted back to ATP with a coupled luciferin/luciferase reaction. The luminescent output from the coupled reaction was quantified and correlated with the kinase activity. […] The assay was conducted as follows: • 1. […] After 120 minutes, the reaction was stopped by addition of 5 pl ADP-Glo reagent (Promega V9102) and the plate incubated at RT for a further 60 minutes. • 5. 10 μL of Kinase Detection reagent (Promega V9102) was added to assay plate and incubated for a further 30 minutes prior to reading luminescence on an Envision (Perkin-Elmer). Data was analysed to calculate compound IC50and Ki as follows: • 1. […] Morrison Ki was determined using Morrison Ki equation (XL-fit).
(ADP-Glo first removes unused ATP, then detects ADP through luciferase.)

The next assay deals with T2, intracellular CK2α (Homo sapiens, UniProt P19784).
T2 construct: host or cells: HCT116 (ATCC CCL-247)
In words: Cell-based NanoBRET assay for inhibitor binding to intracellular CK2α. Conditions: HCT116 cells transiently transfected with CSNK2A2-NanoLuc fusion vector; Tracer K-5; 2 h; read-out: Assay 3: NanoBRET ™ assay for binding to intracellular CK2α. As for the experimental part: This assay used the NanoBRET™ System (Promega), an energy transfer technique designed to measure molecular proximity in living cells. The assay measured the apparent affinity of test compounds by competitive displacement of a NanoBRET™ tracer reversibly bound to a NanoLucR luciferase CK2α fusion protein in cells. A fixed concentration of tracer was added to cells expressing the desired NanoLucR-CK2α fusion protein to generate a BRET reporter complex. […] Donor emission wavelength (450 nm) and acceptor emission wavelength (610 nm or 630 nm) were measured on the Envision (Perkin-Elmer) and BRET ratio calculated for data analysis: BRET Ratio=(Acceptorsample/Donorsample)×1,000. • 7.
In general terms: BRET reads energy transfer from a luciferase to a nearby fluorophore.

Another assay has as its target T3, CK2α (Homo sapiens, UniProt P68400).
T3 construct: CK2α (residues 2-329) was produced in Escherichia coli BL21 (DE3) for kinase activity screening; His6 (N, cleaved yes); made in house; host or cells: Escherichia coli BL21 (DE3)
T3 sequence (P68400 2-329): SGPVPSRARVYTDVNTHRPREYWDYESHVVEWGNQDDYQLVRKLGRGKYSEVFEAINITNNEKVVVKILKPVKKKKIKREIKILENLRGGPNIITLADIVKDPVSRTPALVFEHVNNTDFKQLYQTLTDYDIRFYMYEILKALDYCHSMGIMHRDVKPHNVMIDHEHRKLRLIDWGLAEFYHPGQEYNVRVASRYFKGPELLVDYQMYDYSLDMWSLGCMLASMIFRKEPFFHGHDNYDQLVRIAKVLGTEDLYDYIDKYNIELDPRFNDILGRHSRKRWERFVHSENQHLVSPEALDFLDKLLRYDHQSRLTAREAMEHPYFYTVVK
Put plainly: Biochemical assay for inhibitors of CK2α kinase activity (ADP-Glo). The conditions noted are these: 0.2 nM CK2α, 50 μM peptide substrate, 15 μM ATP, read-out: Assay 1: CK2α Enzyme IC50. As for the experimental part: The inhibitory activity of putative kinase inhibitors and the potency of selected compounds were determined using ADP-Glo™ assay. The kinase reaction was performed in the presence of excess peptide substrate and ATP at a concentration equivalent to Km. Upon termination of the kinase reaction, remaining ATP was depleted leaving only ADP reaction product, which was converted back to ATP with a coupled luciferin/luciferase reaction. The luminescent output from the coupled reaction was quantified and correlated with the kinase activity. […] Single colonies of the cells were grown in 6×1 L of 2×TY with 100 μg/mL ampicillin at 37° C. […] The cells were incubated overnight at 25° C. then harvested by centrifugation at 4,000 g for 20 minutes. The cell pellets were suspended in 20 mM Tris, 500 mM NaCl, pH 8.0 and lysed using a high pressure homogenizer. Protease inhibitor cocktail tablets (one tablet per 50 mL extract; Roche Diagnostics) and DNase I were then added. The crude cell extract was then centrifuged at 10,000 g for 45 minutes, the supernatant was filtered with a 0.22 μm filter. The soluble supernatant was applied on a Ni Sepharose Fast Flow6 column at pH 8.0, washed and eluted in 20 mM Tris pH 8.0, 500 mM NaCl, 200 mM imidazole. […] The cleaved protein was further purified on a Sepharose Q HP anion-exchange column and the main peak fraction from this column was further purified by gel filtration on a Superdex 75 16/60 HiPrep column equilibrated with Tris 20 mM, pH 8.0, 500 mM NaCl. Pure protein was concentrated to 15 mg/mL and flash frozen in liquid nitrogen. […] The assay was conducted as follows: • 1. […] After 120 minutes, the reaction was stopped by addition of 5 pl ADP-Glo reagent (Promega V9102) and the plate incubated at RT for a further 60 minutes. • 5. 10 μL of Kinase Detection reagent (Promega V9102) was added to assay plate and incubated for a further 30 minutes prior to reading luminescence on an Envision (Perkin-Elmer). Data was analysed to calculate compound IC50and Ki as follows: • 1. […] Percent activity was calculated for each well using: (Test well reading−MEAN100%inhibition control wells)/(MEAN0% inhibition control wells−MEAN100%inhibition control wells). • 5. Morrison Ki was determined using Morrison Ki equation (XL-fit).

T2 sequence (P19784 whole entry): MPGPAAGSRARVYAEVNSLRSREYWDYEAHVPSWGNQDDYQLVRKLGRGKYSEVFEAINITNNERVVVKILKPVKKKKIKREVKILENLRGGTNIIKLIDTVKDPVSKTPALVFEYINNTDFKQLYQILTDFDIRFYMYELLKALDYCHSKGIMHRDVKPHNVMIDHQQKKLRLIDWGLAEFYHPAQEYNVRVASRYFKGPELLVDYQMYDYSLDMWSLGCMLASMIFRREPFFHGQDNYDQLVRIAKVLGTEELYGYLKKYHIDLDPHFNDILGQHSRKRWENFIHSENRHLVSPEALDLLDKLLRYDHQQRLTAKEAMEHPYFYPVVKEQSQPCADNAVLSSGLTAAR
T1 sequence (P49760 whole entry): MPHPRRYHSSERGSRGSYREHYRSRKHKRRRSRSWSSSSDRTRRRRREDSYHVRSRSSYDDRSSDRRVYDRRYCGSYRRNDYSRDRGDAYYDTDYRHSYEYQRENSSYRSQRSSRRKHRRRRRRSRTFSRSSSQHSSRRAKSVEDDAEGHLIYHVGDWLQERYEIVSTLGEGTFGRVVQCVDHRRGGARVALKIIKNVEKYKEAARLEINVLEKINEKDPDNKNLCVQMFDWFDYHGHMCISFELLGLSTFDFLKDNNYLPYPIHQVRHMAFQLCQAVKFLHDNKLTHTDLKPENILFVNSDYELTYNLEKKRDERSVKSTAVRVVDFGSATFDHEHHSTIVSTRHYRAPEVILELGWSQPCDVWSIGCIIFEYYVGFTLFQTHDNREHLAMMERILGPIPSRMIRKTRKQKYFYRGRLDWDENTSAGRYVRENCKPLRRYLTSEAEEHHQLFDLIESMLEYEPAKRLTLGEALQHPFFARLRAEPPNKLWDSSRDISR

For the molecule `O=C(CCNCc1ccc(-c2ccccc2)c(Cl)c1)NCCCNc1cc(-c2ccncc2)cc2[nH]ncc12` [Example 1, 3-(((2-Chloro-[1,1′-biphenyl]-4-yl)methyl)amino)-N-(3-((6-(pyridin-4-yl)-1H-indazol-4-yl)amino)propyl)propanamide], the IC50 at CLK2 came to 226 nM; at intracellular CK2α, 124 nM; on CK2α, 1.38 nM.
Taken in the same sequence, the figures for `NC(=O)c1cc(NCCCNC(=O)CCNCc2ccc(-c3ccccc3)c(Cl)c2)c2cn[nH]c2c1` [Example 2, 4-((3-(3-(((2-chloro-[1,1′-biphenyl]-4-yl)methyl)amino)propanamido)propyl)amino)-1H-indazole-6-carboxamide] were 1230 nM, 5880 nM and 12.5 nM.
In the same order, the values of `O=C(CCNCc1ccc(-c2ccccc2)c(Cl)c1)NCCCNc1cc(-c2cn[nH]c2)cc2[nH]ncc12` [Example 3, N-(3-((6-(1H-pyrazol-4-yl)-1H-indazol-4-yl)amino)propyl)-3-(((2-chloro-[1,1′-biphenyl]-4-yl)methyl)amino)propanamide] are 33.4 nM, 135 nM and 0.77 nM.
Regarding `O=C(CCNCc1ccc(-c2ccccc2)c(Cl)c1)NCCCNc1cc(-n2cncn2)cc2[nH]ncc12` [Example 4, N-(3-((6-(1H-1,2,4-triazol-1-yl)-1H-indazol-4-yl)amino)propyl)-3-(((2-chloro-[1,1′-biphenyl]-4-yl)methyl)amino)propanamide], the IC50 at CLK2 amounted to 1010 nM; on intracellular CK2α, 242 nM; on CK2α it was 3.63 nM.
In the same order, the values of `O=C(CCNCc1ccc(OC(F)(F)F)c(Cl)c1)NCCCNc1cc(-c2ccncc2)cc2[nH]ncc12` [Example 5, 3-((3-Chloro-4-(trifluoromethoxy)benzyl)amino)-N-(3-((6-(pyridin-4-yl)-1H-indazol-4-yl)amino)propyl)propanamide] are 306 nM, 240 nM and 2.15 nM.
Taken in the same sequence, the figures for `O=C(CCNCc1ccc(-c2ccccc2)c(Cl)c1)NCCCNc1cc(-c2ccnnc2)cc2[nH]ncc12` [Example 6, 3-(((2-chloro-[1,1′-biphenyl]-4-yl)methyl)amino)-N-(3-((6-(pyridazin-4-yl)-1H-indazol-4-yl)amino)propyl)propanamide] were 235 nM, 50.8 nM and 0.19 nM.
Taken in the same sequence, the figures for `N#Cc1n[nH]cc1-c1cc(NCCCNC(=O)CCNCc2ccc(-c3ccccc3)c(Cl)c2)c2cn[nH]c2c1` [Example 7, 3-(((2-chloro-[1,1′-biphenyl]-4-yl)methyl)amino)-N-(3-((6-(3-cyano-1H-pyrazol-4-yl)-1H-indazol-4-yl)amino)propyl)propanamide] were 69.8 nM, 146 nM and 0.25 nM.
On to `O=C(CCNCc1ccc(-c2ccccc2)c(Cl)c1)NCCCNc1cc(-c2ccncc2)cc2[nH]nnc12` [Example 8, 3-(((2-chloro-[1,1′-biphenyl]-4-yl)methyl)amino)-N-(3-((6-(pyridin-4-yl)-1H-benzo[d][1,2,3]triazol-4-yl)amino)propyl)propanamide], for which the IC50 turned out to be 1100 nM on CLK2, 304 nM at intracellular CK2α and 0.62 nM on CK2α.
With `Cc1nc(-c2cc(NCCCNC(=O)CCNCc3ccc(-c4ccccc4)c(Cl)c3)c3cn[nH]c3c2)c[nH]1` [Example 9, 3-(((2-chloro-[1,1′-biphenyl]-4-yl)methyl)amino)-N-(3-((6-(2-methyl-1H-imidazol-4-yl)-1H-indazol-4-yl)amino)propyl)propanamide], the figures for the IC50 on CLK2, on intracellular CK2α and at CK2α were 568 nM, 8550 nM and 7.69 nM, respectively.
In the same order, the values of `N#Cc1cc(NCCCNC(=O)CCNCc2ccc(-c3ccccc3)c(Cl)c2)c2cn[nH]c2c1` [Example 10, 3-(((2-chloro-[1,1′-biphenyl]-4-yl)methyl)amino)-N-(3-((6-cyano-1H-indazol-4-yl)amino)propyl)propanamide] are 132 nM, 449 nM and 6.96 nM.
Take `O=C(CCNCc1ccc(-c2ccccc2)c(Cl)c1)NCCCNc1cc(-n2cnnc2)cc2[nH]ncc12` [Example 11, N-(3-((6-(4H-1,2,4-triazol-4-yl)-1H-indazol-4-yl)amino)propyl)-3-(((2-chloro-[1,1′-biphenyl]-4-yl)methyl)amino)propanamide]: the IC50 at CLK2 is 31.7 nM; on intracellular CK2α it was 249 nM; at CK2α, 0.29 nM.
Taken in the same sequence, the figures for `O=C(CCNCc1ccc(-c2ccccc2)c(Cl)c1)NCCC(=O)Nc1cc(-n2cnnc2)cc2[nH]ncc12` [Example 12, N-(6-(4H-1,2,4-triazol-4-yl)-1H-indazol-4-yl)-3-(3-(((2-chloro-[1,1′-biphenyl]-4-yl)methyl)amino)propanamido)propanamide] were 612 nM, 6830 nM and 0.6 nM.
Taken in the same sequence, the figures for `O=C(CCNCc1cccc(Cl)c1)NCCCNc1cc(-n2cnnc2)cc2[nH]ncc12` [Example 13, N-(3-((6-(4H-1,2,4-triazol-4-yl)-1H-indazol-4-yl)amino)propyl)-3-((3-chlorobenzyl)amino)propanamide] were 51.7 nM, 3890 nM and 1.43 nM.
Taken in the same sequence, the figures for `Clc1cc(CNCCc2cn(CCNc3cc(-n4cnnc4)cc4[nH]ncc34)nn2)ccc1-c1ccccc1` [Example 14, N-(2-(4-(2-(((2-chloro-[1,1′-biphenyl]-4-yl)methyl)amino)ethyl)-1H-1,2,3-triazol-1-yl)ethyl)-6-(4H-1,2,4-triazol-4-yl)-1H-indazol-4-amine] were 322 nM, 2120 nM and 1.6 nM.
With `O=C(Cc1cnc(CCNCc2ccc(OC(F)(F)F)c(Cl)c2)o1)Nc1cc(-n2cnnc2)cc2[nH]ncc12` [Example 15, N-(6-(4H-1,2,4-triazol-4-yl)-1H-indazol-4-yl)-2-(2-(2-((3-chloro-4-(trifluoromethoxy)benzyl)amino)ethyl)oxazol-5-yl)acetamide], the IC50 at CLK2 is 1830 nM; at intracellular CK2α it was over 50000 nM; on CK2α it was 27.1 nM.
For the molecule `O=C(O)c1cc(NCCCCNCCCCNCc2ccc(-c3ccccc3)c(Cl)c2)c2cn[nH]c2c1` [Example 60, 4-((4-((4-(((2-chloro-[1,1′-biphenyl]-4-yl)methyl)amino)butyl)amino)butyl)amino)-1H-indazole-6-carboxylic acid], the IC50 turned out to be 30200 nM at CLK2 and 215 nM on CK2α.
